What all share (test): AK assay 384-well format, Prestwick library screening
The test system of one assay is E. faecium. It counts as cell-based, Enterococcus faecium. As to conditions: for fold induction at 50 µM: Enterococcus faecium, 3 h.
In assay [1] the test system is S. aureus strain USA300-0114. It counts as cell-based, Staphylococcus aureus. As to conditions: for fold induction at 50 µM: Staphylococcus aureus, USA300, 3 h.
Another assay relates to K. pneumoniae. The class given is cell-based, Klebsiella pneumoniae. As to conditions: for fold induction at 50 µM: Klebsiella pneumoniae, 3 h.
Assay [2] relates to A. baumannii strain 98-37-09. The class given is cell-based, Acinetobacter baumannii. As to conditions: for fold induction at 50 µM: Acinetobacter baumannii, 983709, 3 h.
A further assay deals with P. aeruginosa. It counts as cell-based, Pseudomonas aeruginosa. As to conditions: for fold induction at 50 µM: Pseudomonas aeruginosa, 3 h.
The test system of another assay is E. cloacae. It counts as cell-based, Enterobacter cloacae. As to conditions: for fold induction at 50 µM: Enterobacter cloacae, 3 h.
The subject of a further assay is E. coli. It counts as cell-based, Escherichia coli. As to conditions: for fold induction at 50 µM: Escherichia coli, 3 h.
The mark [3] stands for this setting: 50 μM final drug concentration, cutoff for positive-scoring molecules 3-fold increase, read-out: AK-based Prestwick Library Screening Results, E. faecium (fold increase in extracellular AK activity).
The mark [4] stands for this setting: 50 μM final drug concentration, cutoff for positive-scoring molecules 3-fold increase, read-out: AK-based Prestwick Library Screening Results, S. aureus (fold increase in extracellular AK activity).
[5] abbreviates: 50 μM final drug concentration, cutoff for positive-scoring molecules 3-fold increase, read-out: AK-based Prestwick Library Screening Results, K. pneumoniae (fold increase in extracellular AK activity).
[6] abbreviates: 50 μM final drug concentration, cutoff for positive-scoring molecules 3-fold increase, read-out: AK-based Prestwick Library Screening Results, A. baumannii (fold increase in extracellular AK activity).
[7] abbreviates: 50 μM final drug concentration, cutoff for positive-scoring molecules 3-fold increase, read-out: AK-based Prestwick Library Screening Results, P. aeruginosa (fold increase in extracellular AK activity).
Where [8] appears, read: 50 μM final drug concentration, cutoff for positive-scoring molecules 3-fold increase, read-out: AK-based Prestwick Library Screening Results, E. cloacae (fold increase in extracellular AK activity).
Setting [9] is: 50 μM final drug concentration, cutoff for positive-scoring molecules 3-fold increase, read-out: AK-based Prestwick Library Screening Results, E. coli (fold increase in extracellular AK activity).
Setting [10] is: 50 μM final drug concentration, planktonic, cutoff for positive 3-fold increase.
The mark [11] stands for this setting: 50 μM final drug concentration, 384-well format, cutoff for positive-scoring molecules 3-fold increase, read-out: AK-based Prestwick Library Screening Results, E. faecium (increase in extracellular AK activity).
Setting [12] is: 50 μM final drug concentration, 384-well format, cutoff for positive-scoring molecules 3-fold increase, read-out: AK-based Prestwick Library Screening Results, S. aureus (increase in extracellular AK activity).
[13] abbreviates: 50 μM final drug concentration, 384-well format, cutoff for positive-scoring molecules 3-fold increase, read-out: AK-based Prestwick Library Screening Results, K. pneumoniae (increase in extracellular AK activity).
Setting [14] is: 50 μM final drug concentration, 384-well format, cutoff for positive-scoring molecules 3-fold increase, read-out: AK-based Prestwick Library Screening Results, A. baumannii (increase in extracellular AK activity).
[15] abbreviates: 50 μM final drug concentration, 384-well format, cutoff for positive-scoring molecules 3-fold increase, read-out: AK-based Prestwick Library Screening Results, P. aeruginosa (increase in extracellular AK activity).
[16] abbreviates: 50 μM final drug concentration, 384-well format, cutoff for positive-scoring molecules 3-fold increase, read-out: AK-based Prestwick Library Screening Results, E. cloacae (increase in extracellular AK activity).
The mark [17] stands for this setting: 50 μM final drug concentration, 384-well format, cutoff for positive-scoring molecules 3-fold increase, read-out: AK-based Prestwick Library Screening Results, E. coli (increase in extracellular AK activity).
The mark [18] stands for this setting: planktonic E. faecium, 50 μM final drug concentration, cutoff for positive-scoring molecules 3-fold increase, read-out: AK-based Prestwick Library Screening Results, E. faecium (increase in extracellular AK activity).
The mark [19] stands for this setting: planktonic S. aureus, 50 μM final drug concentration, cutoff for positive-scoring molecules 3-fold increase, read-out: AK-based Prestwick Library Screening Results, S. aureus (increase in extracellular AK activity).
The mark [20] stands for this setting: planktonic K. pneumoniae, 50 μM final drug concentration, cutoff for positive-scoring molecules 3-fold increase, read-out: AK-based Prestwick Library Screening Results, K. pneumoniae (increase in extracellular AK activity).
The mark [21] stands for this setting: planktonic A. baumannii, 50 μM final drug concentration, cutoff for positive-scoring molecules 3-fold increase, read-out: AK-based Prestwick Library Screening Results, A. baumannii (increase in extracellular AK activity).
Where [22] appears, read: planktonic P. aeruginosa, 50 μM final drug concentration, cutoff for positive-scoring molecules 3-fold increase, read-out: AK-based Prestwick Library Screening Results, P. aeruginosa (increase in extracellular AK activity).
The mark [23] stands for this setting: planktonic E. cloacae, 50 μM final drug concentration, cutoff for positive-scoring molecules 3-fold increase, read-out: AK-based Prestwick Library Screening Results, E. cloacae (increase in extracellular AK activity).
[24] abbreviates: planktonic E. coli, 50 μM final drug concentration, cutoff for positive-scoring molecules 3-fold increase, read-out: AK-based Prestwick Library Screening Results, E. coli (increase in extracellular AK activity).

Counter-ions that a name gives are not always drawn. Like-named read-outs stand apart in the source and are kept apart here.

The text below walks through data of US10004701B2, “Methods and compositions for treating infection” (UNIVERSITY OF ROCHESTER, priority 2012, dated 2018).

In the case of `CC(C)(Oc1ccc(Cl)cc1)C(=O)O` [Clofibric acid], the fold induction at 50 µM in the assay with E. faecium (setting [3]) was 1.1; in assay [1] (setting [4]) it was 1.4; with K. pneumoniae (setting [5]), 1.1; in assay [2] (setting [6]), 1.3; with P. aeruginosa (setting [7]) it was 1.2; in the assay on E. cloacae (setting [8]), 1.5. For the same compound, in the assay on E. coli (setting [9]), the fold induction at 50 µM worked out at 1.2.
On to `CCN(CC)CCOc1ccc(C(=C(Cl)c2ccccc2)c2ccccc2)cc1.O=C(O)CC(O)(CC(=O)O)C(=O)O` [Clomiphene citrate (Z,E)], for which the “AK-based Prestwick Library Screening Results, E. faecium (fold increase in extracellular AK activity)” value in the assay with E. faecium (setting [10]) is 4.4. For the same compound, in assay [1] (setting [10]), the “AK-based Prestwick Library Screening Results, S. aureus (fold increase in extracellular AK activity)” value came to 2.0. In addition, in the assay with K. pneumoniae (setting [10]), the “AK-based Prestwick Library Screening Results, K. pneumoniae (fold increase in extracellular AK activity)” value came out at 1.6. In addition, the “AK-based Prestwick Library Screening Results, A. baumannii (fold increase in extracellular AK activity)” value in assay [2] (setting [10]) was 5.4. In addition, the “AK-based Prestwick Library Screening Results, P. aeruginosa (fold increase in extracellular AK activity)” value in the assay on P. aeruginosa (setting [10]) stood at 1.4. Moreover, the “AK-based Prestwick Library Screening Results, E. cloacae (fold increase in extracellular AK activity)” value in the assay on E. cloacae (setting [10]) was found to be 1.9. Moreover, the “AK-based Prestwick Library Screening Results, E. coli (fold increase in extracellular AK activity)” value with E. coli (setting [10]) came out at 1.8.
Consider `CN(C)CCCN1c2ccccc2CCc2ccc(Cl)cc21` [Clomipramine hydrochloride], for which the fold induction at 50 µM with E. faecium (setting [11]) was found to be 1.1; in assay [1] (setting [12]) it was 0.8; in the assay on K. pneumoniae (setting [13]), 0.7; in assay [2] (setting [14]), 1; in the assay on P. aeruginosa (setting [15]), 0.9; with E. cloacae (setting [16]), 1. Moreover, the fold induction at 50 µM in the assay on E. coli (setting [17]) was 1.1.
Consider `Clc1cccc(Cl)c1N=C1NCCN1` [Clonidine hydrochloride], for which the fold induction at 50 µM came to 0.9 in the assay on E. faecium (setting [11]); 0.5 in assay [1] (setting [12]); 0.5 in the assay on K. pneumoniae (setting [13]); 0.6 in assay [2] (setting [14]); 0.5 in the assay with P. aeruginosa (setting [15]); 0.6 in the assay on E. cloacae (setting [16]). Also, in the assay with E. coli (setting [17]), the fold induction at 50 µM was 0.5.
On to `Cc1c(Cl)cccc1Nc1ncccc1C(=O)O.NCCCC[C@H](N)C(=O)O` [Clonixin Lysinate], for which the “AK-based Prestwick library screening result, E. faecium (fold increase in extracellular AK activity)” value with E. faecium is given as 0.9. In addition, the “AK-based Prestwick library screening result, S. aureus (fold increase in extracellular AK activity)” value in assay [1] is given as 1.2. Also, in the assay with K. pneumoniae, the “AK-based Prestwick library screening result, K. pneumoniae (fold increase in extracellular AK activity)” value worked out at 1.1. The “AK-based Prestwick library screening result, A. baumannii (fold increase in extracellular AK activity)” value in assay [2] turned out to be 1.4. Also, the “AK-based Prestwick library screening result, P. aeruginosa (fold increase in extracellular AK activity)” value in the assay on P. aeruginosa is recorded as 1.0. In addition, the “AK-based Prestwick library screening result, E. cloacae (fold increase in extracellular AK activity)” value in the assay with E. cloacae is 1.5. In the assay on E. coli, the “AK-based Prestwick library screening result, E. coli (fold increase in extracellular AK activity)” value is recorded as 1.0.
As for `C[C@@H]1CCC[C@H](C)N1NC(=O)c1ccc(Cl)c(S(N)(=O)=O)c1` [Clopamide], the fold induction at 50 µM in the assay with E. faecium (setting [18]) was determined as 0.9; in assay [1] (setting [19]) it was 0.7; in the assay with K. pneumoniae (setting [20]), 0.7; in assay [2] (setting [21]), 0.8; in the assay with P. aeruginosa (setting [22]) it was 0.8; with E. cloacae (setting [23]) it was 1. In addition, the fold induction at 50 µM in the assay on E. coli (setting [24]) came to 0.8.
For `Clc1ccc(C(OCCN2CCCCC2)c2ccccc2)cc1` (stereo not drawn) [Cloperastine hydrochloride], the fold induction at 50 µM stood at 1.1 in the assay with E. faecium (setting [3]); 1.3 in assay [1] (setting [4]); 1.2 in the assay on K. pneumoniae (setting [5]); 1.4 in assay [2] (setting [6]); 1.2 in the assay with P. aeruginosa (setting [7]); 2 in the assay with E. cloacae (setting [8]). Moreover, in the assay with E. coli (setting [9]), the fold induction at 50 µM was 1.2.
Regarding `C#CCN(C)CCCOc1ccc(Cl)cc1Cl` [Clorgyline hydrochloride], the fold induction at 50 µM with E. faecium (setting [18]) is 0.7; in assay [1] (setting [19]) it was 0.5; in the assay on K. pneumoniae (setting [20]), 0.5; in assay [2] (setting [21]) it was 0.6; in the assay on P. aeruginosa (setting [22]) it was 0.7; in the assay with E. cloacae (setting [23]), 0.8. Moreover, the fold induction at 50 µM in the assay on E. coli (setting [24]) stood at 0.7.
As to `Nc1cc(C(Cl)=C(Cl)Cl)c(S(N)(=O)=O)cc1S(N)(=O)=O` [Clorsulon], the fold induction at 50 µM in the assay with E. faecium (50 μM final drug concentration, planktonic, cutoff for positive 3-fold increase, read-out: AK-based Prestwick Library Screening Results, E. faecium (fold increase in extracellular AK activity)) was found to be 1.4; in assay [1] (50 μM final drug concentration, planktonic, cutoff for positive 3-fold increase, read-out: AK-based Prestwick Library Screening Results, S. aureus (fold increase in extracellular AK activity)) it was 1.5; with K. pneumoniae (50 μM final drug concentration, planktonic, cutoff for positive 3-fold increase, read-out: AK-based Prestwick Library Screening Results, K. pneumoniae (fold increase in extracellular AK activity)) it was 1; in assay [2] (50 μM final drug concentration, planktonic, cutoff for positive 3-fold increase, read-out: AK-based Prestwick Library Screening Results, A. baumannii (fold increase in extracellular AK activity)), 1; in the assay with P. aeruginosa (50 μM final drug concentration, planktonic, cutoff for positive 3-fold increase, read-out: AK-based Prestwick Library Screening Results, P. aeruginosa (fold increase in extracellular AK activity)), 1.1; in the assay on E. cloacae (50 μM final drug concentration, planktonic, cutoff for positive 3-fold increase, read-out: AK-based Prestwick Library Screening Results, E. cloacae (fold increase in extracellular AK activity)), 1.7. Moreover, in the assay with E. coli (50 μM final drug concentration, planktonic, cutoff for positive 3-fold increase, read-out: AK-based Prestwick Library Screening Results, E. coli (fold increase in extracellular AK activity)), the fold induction at 50 µM stood at 1.
`Clc1ccccc1C(c1ccccc1)(c1ccccc1)n1ccnc1` [Clotrimazole]: the fold induction at 50 µM in the assay with E. faecium (setting [11]) is 1.3; in assay [1] (setting [12]), 2; in the assay with K. pneumoniae (setting [13]), 1; in assay [2] (setting [14]), 3.3; in the assay with P. aeruginosa (setting [15]) it was 1; in the assay on E. cloacae (setting [16]) it was 1. Also, in the assay with E. coli (setting [17]), the fold induction at 50 µM turned out to be 1.
Take `Cc1onc(-c2ccccc2Cl)c1C(=O)N[C@@H]1C(=O)N2[C@@H]1SC(C)(C)[C@@H]2C(=O)O` [Cloxacillin sodium salt]: the fold induction at 50 µM in the assay with E. faecium (setting [11]) was found to be 1; in assay [1] (setting [12]), 5.3; with K. pneumoniae (setting [13]), 0.7; in assay [2] (setting [14]), 1.3; in the assay with P. aeruginosa (setting [15]), 1; with E. cloacae (setting [16]) it was 1. Besides, the fold induction at 50 µM in the assay on E. coli (setting [17]) worked out at 1.
As to `CN1CCN(C2=Nc3cc(Cl)ccc3Nc3ccccc32)CC1` [Clozapine], the fold induction at 50 µM is 0.9 with E. faecium (setting [18]); 0.7 in assay [1] (setting [19]); 0.8 in the assay with K. pneumoniae (setting [20]); 0.9 in assay [2] (setting [21]); 1 in the assay with P. aeruginosa (setting [22]); 1 in the assay on E. cloacae (setting [23]). In the assay on E. coli (setting [24]), the fold induction at 50 µM was 0.9.
